The record followed here is paper PMC10726355, “Small Molecule Ligands of the BET-like Bromodomain, SmBRD3, Affect Schistosoma mansoni Survival, Oviposition, and Development” (Journal of Medicinal Chemistry, 2023).

By chromatographic logD is commonly meant lipophilicity estimated from chromatographic retention. Lower therefore signals a more hydrophilic compound. For orientation: solubility means the dissolved amount per volume that the medium holds.

One data set in a line: chromLogD assay. The format is physicochemical. To be noted: reversed phase HPLC column (Gemini NX C18), pH 7.4. On the procedure: Lipophilicity: a chromLogD assay was carried out by the Physchem Team, Discovery Analytical, NCE Molecular Discovery at GSK. The chromatographic hydrophobicity index (CHI)[46],[47] values were measured using reversed phase HPLC column (50 × 2 mm […] Gemini NX C18, Phenomenex, UK) with fast acetonitrile gradient at starting mobile phase of pHs 2, 7.4, or 10.5. CHI values were derived directly from the gradient retention times using calibration parameters for standard compounds. The CHI value approximates to the volume % organic concentration when the compound elutes. CHI was linearly transformed into a chromLogD[48] value by least-squares fitting of experimental CHI values to calculated cLogP values for over 20000 research compounds.

A short description of another data set: CAD solubility assay. The format is physicochemical. To be noted: phosphate buffered saline, pH 7.4, phosphate buffered saline at pH 7.4; read-out: Aqueous Solubility by CAD. On the procedure:
A CAD solubility assay was carried out by Physchem Team, Discovery Analytical, NCE Molecular Discovery at GSK. 5 μL of 10 mM DMSO stock solution was diluted to 100 μL with pH 7.4 phosphate buffered saline, equilibrated for 1 h at room temperature, and filtered through Millipore MultiscreenHTS-PCF filter plates (MSSL BPC). The filtrate was quantified using a suitably calibrated charged aerosol detector.[45]

The target of a further data set is SmBRD3(2) (Schistosoma mansoni, UniProt A0A5K4ESD7). As to the kind of experiment: biochemical. The format is binding.
The next data set concerns the target SmBRD3(1,2) (Schistosoma mansoni, UniProt A0A5K4ESD7). As to the kind of experiment: biochemical. To be noted: ITC; n = 1 ± error of the curve fit. The class given is binding.

Each structure is given as a SMILES string. Entries after “also recorded” stand apart in the source; their conditions may differ. Read-outs that look alike come from different tables or passages of the source.

Chain of SmBRD3(2) (A0A5K4ESD7 entry or part of it): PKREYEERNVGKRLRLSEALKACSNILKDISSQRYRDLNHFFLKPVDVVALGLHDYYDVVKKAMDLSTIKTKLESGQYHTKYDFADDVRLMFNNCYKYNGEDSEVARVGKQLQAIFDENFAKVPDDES
Chain of SmBRD3(1,2) (A0A5K4ESD7 entry or part of it): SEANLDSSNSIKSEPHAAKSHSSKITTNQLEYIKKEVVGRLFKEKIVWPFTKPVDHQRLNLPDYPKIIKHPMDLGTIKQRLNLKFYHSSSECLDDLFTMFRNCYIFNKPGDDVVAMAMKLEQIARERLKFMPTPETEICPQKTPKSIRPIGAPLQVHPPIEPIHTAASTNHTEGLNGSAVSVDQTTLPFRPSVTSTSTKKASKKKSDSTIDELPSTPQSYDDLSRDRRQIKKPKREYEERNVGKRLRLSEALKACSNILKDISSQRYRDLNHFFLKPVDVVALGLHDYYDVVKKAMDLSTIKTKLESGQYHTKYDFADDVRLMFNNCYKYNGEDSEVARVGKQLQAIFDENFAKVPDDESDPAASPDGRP

On to `CC(=O)N1c2ccc(-c3ccc(C(=O)O)cc3)cc2[C@@H](Nc2ccc3ccsc3c2)C[C@H]1C` [Compound 10, 4-{(2R,4S)-1-Acetyl-4-[(1-benzothiophen-6-yl)amino]-2-methyl-1,2,3,4-tetrahydroquinolin-6-yl}benzoic Acid], for which the chromatographic logD in the data set “chromLogD assay” was 2.83. Also, in the data set “CAD solubility assay”, the solubility at 1 h is more than 259 µM. Moreover, on SmBRD3(2), the “SmBRD3(2) Kd” value is listed as “No detectable binding; also recorded: does not bind” and the “SmBRD3(2) Kd, Repeat 1” value is reported as “No binding”. The “SmBRD3(1,2) Kd” value on SmBRD3(1,2) is recorded as “No detectable binding”.
In turn, `CC(=O)N1c2ccc(-c3ccc(C(=O)O)cc3)cc2[C@H](Nc2ccc3ncsc3c2)C[C@@H]1C` [Compound 14, 4-{(2S,4R)-1-Acetyl-4-[(1,3-benzothiazol-6-yl)amino]-2-methyl-1,2,3,4-tetrahydroquinolin-6-yl}benzoic acid] returned a chromatographic logD in “chromLogD assay” of 1.78. For the same molecule, the solubility at 1 h in the data set “CAD solubility assay” was not below 260 µM. Also, the “N number, binding to SmBRD3(2), Repeat 1” value on SmBRD3(2) (ITC stoichiometry, Repeat 1) was 1.42 ± 2.4e-2. Moreover, the “N number, binding to SmBRD3(2), Repeat 2” value on SmBRD3(2) (ITC stoichiometry, Repeat 2) stood at 1.54 ± 0.101. Further, the “N number, binding to SmBRD3(2), Repeat 3” value on SmBRD3(2) (ITC stoichiometry, Repeat 3) is 1.49 ± 5.4e-2. For the same molecule, the “N number, binding to SmBRD3(2), Mean” value at SmBRD3(2) (ITC stoichiometry, mean of repeats) is listed as 1.48. Also, the Kd at SmBRD3(2) (ITC, read-out: SmBRD3(2) pKd (converted)) was 1260 nM; on SmBRD3(2) (ITC, single run ± error of curve fit, Repeat 1, read-out: SmBRD3(2) Kd, Repeat 1), 1010 ± 160 nM; at SmBRD3(2) (ITC, single run ± error of curve fit, Repeat 2, read-out: SmBRD3(2) Kd, Repeat 2) it was 1270 ± 779 nM; on SmBRD3(2) (ITC, single run ± error of curve fit, Repeat 3, read-out: SmBRD3(2) Kd, Repeat 3) it was 1270 ± 349 nM; on SmBRD3(2) (read-out: SmBRD3(2) Kd), 1180 ± 86.7 nM.
